Experimental data published in patent US20060069132A1, “Azolecarboxamide herbicides” (priority 2004, published 2006).

How the values were obtained:
barnyardgrass [1] = assay: Test B pre-/postemergence herbicide test; format: in vivo, Echinochloa crus-galli; conditions: for Barnyardgrass plant response rating: postemergence
Method in brief: (§1)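 Seeds were planted and treated preemergence with compounds formulated in a non-phytotoxic solvent mixture containing surfactant, while plants at the 1- to 4-leaf stage (2 to 18 cm) received postemergence sprays. Flooded paddy plants were grown to the 2-leaf stage. After 13 to 15 days in a greenhouse, injury was visually rated 0–100 against untreated controls.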

Surinam grass = assay: Test B pre-/postemergence herbicide test; format: in vivo, Urochloa decumbens; conditions: for Surinam Grass plant response rating: postemergence
Method in brief: (§2)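 Response was scored visually 13 to 15 days after treatment against untreated greenhouse controls, 0 meaning no effect and 100 complete control. Formulations (solvent mixture plus surfactant) went onto soil after planting, onto foliage of 1- to 4-leaf plants, and onto 2-leaf plants in a flooded paddy set including rice and barnyardgrass.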

cocklebur = assay: Test B pre-/postemergence herbicide test; format: in vivo, Xanthium strumarium; conditions: for Cocklebur plant response rating: postemergence
Method in brief: as §1

corn = assay: Test B pre-/postemergence herbicide test; format: in vivo, Zea mays; conditions: for Corn plant response rating: postemergence
Method in brief: as §2

large crabgrass = assay: Test B pre-/postemergence herbicide test; format: in vivo, Digitaria sanguinalis; conditions: for Crabgrass, Large plant response rating: postemergence
Method in brief: as §2

giant foxtail = assay: Test B pre-/postemergence herbicide test; format: in vivo, Setaria faberi; conditions: for Foxtail, Giant plant response rating: postemergence
Method in brief: as §2

lambsquarters = assay: Test B pre-/postemergence herbicide test; format: in vivo, Chenopodium album; conditions: for Lambsquarters plant response rating: postemergence
Method in brief: as §2

morningglory = assay: Test B pre-/postemergence herbicide test; format: in vivo, Ipomoea coccinea; conditions: for Morningglory plant response rating: postemergence
Method in brief: as §1

pigweed = assay: Test B pre-/postemergence herbicide test; format: in vivo, Amaranthus retroflexus; conditions: for Pigweed plant response rating: postemergence
Method in brief: as §2

rice [2] = assay: Test B pre-/postemergence herbicide test; format: in vivo, Oryza sativa; conditions: 0 = no effect, 100 = complete control, preemergence
Method in brief: as §2

velvetleaf = assay: Test B pre-/postemergence herbicide test; format: in vivo, Abutilon theophrasti; conditions: for Velvetleaf plant response rating: postemergence
Method in brief: as §2

blackgrass = assay: Test B postemergence herbicide test; format: in vivo, Alopecurus myosuroides; conditions: postemergence
Method in brief: (§3)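 Postemergence plants were sprayed with formulated test chemicals at 2 to 18 cm height (1- to 4-leaf stage); paddy species were grown to the 2-leaf stage. After 13 to 15 days in a greenhouse, injury was rated visually against untreated controls on a 0–100 scale (0 = no effect, 100 = complete control).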

wheat = assay: Test B postemergence herbicide test; format: in vivo, Triticum aestivum; parameters: key to Wheat plant response rating: 0 = no effect, 100 = complete control; conditions: postemergence
Method in brief: (§4)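 Greenhouse test; postemergence application to plants at 1–4 leaves (2–18 cm); paddy species at 2 leaves; evaluated visually vs controls at 13–15 days; scale 0–100 (100 = complete control).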

wild oat = assay: Test B postemergence herbicide test; format: in vivo, Avena fatua; conditions: postemergence
Method in brief: as §4

rice [3] = assay: Test B flooded paddy test; format: in vivo, Oryza sativa; conditions: 1000 g ai/ha, scale 0 to 100 (0 no effect, 100 complete control)
Method in brief: as §3

[4] = tested on: small flower umbrella sedge; assay: Test B flooded paddy test; format: in vivo, Cyperus difformis; conditions: 1000 g ai/ha, scale 0 to 100 (0 no effect, 100 complete control)
Method in brief: as §3

ducksalad = assay: Test B flooded paddy test; format: in vivo, Heteranthera limosa; conditions: 1000 g ai/ha, scale 0 to 100 (0 no effect, 100 complete control)
Method in brief: as §3

barnyardgrass [5] = assay: Test B flooded paddy test; format: in vivo, Echinochloa crus-galli; conditions: 1000 g ai/ha, scale 0 to 100 (0 no effect, 100 complete control)
Method in brief: as §3

[6] = 125 g ai/ha, 0 = no effect, 100 = complete control, preemergence
[7] = 125 g ai/ha, visual rating, scale 0 (no effect) to 100 (complete control)
[8] = 500 g ai/ha, visual rating, 0 = no effect, 100 = complete control, preemergence
[9] = 500 g ai/ha, scale 0 to 100, 0 is no effect, 100 is complete control

For `CCc1nn(C(C)(C)C)cc1C(=O)Nc1cccc(C(=O)N(C)C)n1` [Compound 292], the “Barnyardgrass plant response rating (0 to 100 scale)” value (barnyardgrass [1]; [6]) was 10, the “Barnyardgrass plant response rating” value (barnyardgrass [1]; [7]) was 0 and the “Plant response rating, Barnyardgrass” value (barnyardgrass [1]; [8]) was 90. For the same molecule, the “Barnyardgrass plant response rating” value (barnyardgrass [1]; [9]) was 0, the “Surinam Grass plant response rating (0 to 100 scale)” value (Surinam grass; [6]) was 20 and the “Surinam Grass plant response rating” value (Surinam grass; [7]) was 0. The “Plant response rating, Surinam Grass” value (Surinam grass; [8]) was 100, the “Surinam Grass plant response rating” value (Surinam grass; [9]) was 20 and the “Cocklebur plant response rating (0 to 100 scale)” value (cocklebur; [6]) was 0. For the same molecule, the “Cocklebur plant response rating” value (cocklebur; [7]) was 0, the “Plant response rating, Cocklebur” value (cocklebur; [8]) was 40 and the “Cocklebur plant response rating” value (cocklebur; [9]) was 10. The “Corn plant response rating (0 to 100 scale)” value (corn; [6]) was 0, the “Corn plant response rating” value (corn; [7]) was 10 and the “Plant response rating, Corn” value (corn; [8]) was 80. The “Corn plant response rating” value (corn; [9]) was 20, the “Crabgrass, Large plant response rating (0 to 100 scale)” value (large crabgrass; [6]) was 80 and the “Crabgrass, Large plant response rating” value (large crabgrass; [7]) was 0. For the same molecule, the “Plant response rating, Crabgrass, Large” value (large crabgrass; [8]) was 100, the “Crabgrass, Large plant response rating” value (large crabgrass; [9]) was 10 and the “Foxtail, Giant plant response rating (0 to 100 scale)” value (giant foxtail; [6]) was 0. The “Foxtail, Giant plant response rating” value (giant foxtail; [7]) was 0, the “Plant response rating, Foxtail, Giant” value (giant foxtail; [8]) was 70 and the “Foxtail, Giant plant response rating” value (giant foxtail; [9]) was 20. For the same molecule, the “Lambsquarters plant response rating (0 to 100 scale)” value (lambsquarters; [6]) was 70, the “Lambsquarters plant response rating” value (lambsquarters; [7]) was 30 and the “Plant response rating, Lambsquarters” value (lambsquarters; [8]) was 100. For the same molecule, the “Lambsquarters plant response rating” value (lambsquarters; [9]) was 70, the “Morningglory plant response rating (0 to 100 scale)” value (morningglory; [6]) was 0 and the “Morningglory plant response rating” value (morningglory; [7]) was 0. For the same molecule, the “Plant response rating, Morningglory” value (morningglory; [8]) was 30, the “Morningglory plant response rating” value (morningglory; [9]) was 20 and the “Pigweed plant response rating (0 to 100 scale)” value (pigweed; [6]) was 40. For the same molecule, the “Pigweed plant response rating” value (pigweed; [7]) was 20, the “Plant response rating, Pigweed” value (pigweed; [8]) was 100 and the “Pigweed plant response rating” value (pigweed; [9]) was 30. For the same molecule, the “Rice plant response rating (0 to 100 scale)” value (rice [2]; 125 g ai/ha) was 0, the “Plant response rating, Rice” value (rice [2]; 500 g ai/ha, visual rating) was 90 and the “Velvetleaf plant response rating” value (velvetleaf; [7]) was 10. For the same molecule, the “Plant response rating, Velvetleaf” value (velvetleaf; [8]) was 70, the “Velvetleaf plant response rating” value (velvetleaf; [9]) was 10 and the “Blackgrass plant response rating” value (blackgrass; [7]) was 10. The “Blackgrass plant response rating” value (blackgrass; [9]) was 20, the “Wheat plant response rating” value (wheat; [7]) was 0 and the “Wheat plant response rating” value (wheat; [9]) was 20. For the same molecule, the “Oat, Wild plant response rating” value (wild oat; [7]) was 10, the “Oat, Wild plant response rating” value (wild oat; [9]) was 40 and the “Rice plant response rating” value (rice [3]) was 30. The “Sedge, Umbrella plant response rating” value [4] was 60, the “Ducksalad plant response rating” value (ducksalad) was 0 and the “Barnyardgrass plant response rating” value (barnyardgrass [5]) was 20.
